# Target: SARS-CoV-2 nsp12/7/8 (RTC) complex (Severe acute respiratory syndrome coronavirus 2, UniProt P0DTD1)
# Assay: biochemical
# Assay type: biochemical
# Conditions: not given
row,SMILES,IC50 [µM]
1,CC(=O)OC(C)(C)/C=C/C(=O)[C@](C)(O)[C@H]1[C@H](O)C[C@@]2(C)[C@@H]3CC=C4[C@@H](C=C(O)C(=O)C4(C)C)[C@]3(C)C(=O)C[C@]12C [Cucurbitacin E],47.2 ± 20.5
2,C[C@@H]1C(=O)O[C@H](C)[C@H]1C[C@@H](O)[C@](C)(O)[C@H]1CC[C@@]2(O)C3=CC(=O)[C@@H]4C[C@@H](O)[C@@H](O)C[C@]4(C)[C@H]3CC[C@]12C [Cyasterone],> 100
3,"CC(=O)c1nn(CC(=O)N2C[C@H](F)C[C@H]2C(=O)Nc2cccc(Br)n2)c2ccc(-c3cnc(C)nc3)cc12 [Danicopan, reference compound]",> 100
4,"Cc1ccc(-n2nc(C(C)(C)C)cc2NC(=O)Nc2ccc(OCCN3CCOCC3)c3ccccc23)cc1 [Doramapimod, reference compound]",> 100
5,"C[C@]12C=CC(=O)N[C@@H]1CC[C@@H]1[C@@H]2CC[C@]2(C)[C@@H](C(=O)Nc3cc(C(F)(F)F)ccc3C(F)(F)F)CC[C@@H]12 [Dutasteride, reference compound]",> 100
6,"CC1(C)[C@@H](O)CC[C@]2(C)[C@H]3C(=O)C=C4[C@@H]5C[C@@](C)(C(=O)O)CC[C@]5(C)CC[C@@]4(C)[C@]3(C)CC[C@@H]12 [Enoxolone, reference compound]",35.5 ± 4.61
7,"CC1=C(/C=C/C(C)=C/C=C/C(C)=C/C(=O)Nc2ccc(O)cc2)C(C)(C)CCC1 [Fenretinide, reference compound]",> 100
8,CC(C)=CCC[C@](C)(O[C@@H]1O[C@H](CO)[C@@H](O)[C@H](O)[C@H]1O)[C@H]1CC[C@]2(C)[C@@H]1[C@H](O)C[C@@H]1[C@@]3(C)CC[C@H](O)C(C)(C)[C@@H]3[C@@H](O)C[C@]12C [Ginsenoside F1],> 100
9,CC(C)=CC/C=C(\C)[C@H]1CC[C@]2(C)[C@@H]1[C@H](O)C[C@@H]1[C@@]3(C)CC[C@H](O[C@@H]4O[C@H](CO)[C@@H](O)[C@H](O)[C@H]4O[C@@H]4O[C@H](CO)[C@@H](O)[C@H](O)[C@H]4O)C(C)(C)[C@@H]3CC[C@]12C [Ginsenoside Rg5],> 100
10,C[C@@H]1O[C@@H](O[C@H]2CC[C@]3(C=O)[C@H]4CC[C@]5(C)[C@@H](c6ccc(=O)oc6)CC[C@]5(O)[C@@H]4CC[C@]3(O)C2)[C@H](O)[C@H](O)[C@H]1O[C@@H]1O[C@H](CO)[C@@H](O)[C@H](O)[C@H]1O [Hellebrin],> 100
11,"C[C@]1(O)C[C@@H](c2nc(-c3ccc4ccc(-c5ccccc5)nc4c3)c3c(N)nccn32)C1 [Linsitinib, reference compound]",> 100
12,C=C(C)[C@@H]1CC[C@]2(C)CC[C@]3(C)[C@H](CC[C@@H]4[C@@]5(C)CCC(=O)C(C)(C)[C@@H]5CC[C@]43C)[C@@H]12 [Lupenone],> 100
13,C=C(C)[C@@H]1CC[C@]2(C)CC[C@]3(C)[C@H](CC[C@@H]4[C@@]5(C)CC[C@H](O)C(C)(C)[C@@H]5CC[C@]43C)[C@@H]12 [Lupeol],> 100
14,C[C@H]1[C@H](C)CC[C@]2(C(=O)O)CC[C@]3(C)C(=CC[C@@H]4[C@@]5(C)C[C@@H](O)[C@H](O)[C@@](C)(CO)[C@@H]5[C@H](O)C[C@]43C)[C@H]12 [Madecassic Acid],> 100
15,CC1(C)CC[C@]2(C(=O)O)CC[C@]3(C)C(=CC[C@@H]4[C@@]5(C)C[C@@H](O)[C@H](O)C(C)(C)[C@@H]5CC[C@]43C)[C@@H]2C1 [Maslinic Acid],> 100
16,CC[C@@]1([C@@H]2O[C@@H]([C@H]3O[C@@](O)(CO)[C@H](C)C[C@@H]3C)C[C@@H]2C)CC[C@H]([C@]2(C)CC[C@]3(C[C@H](O)[C@@H](C)[C@@H]([C@@H](C)[C@@H](OC)[C@H](C)C(=O)O)O3)O2)O1 [Monensin],> 100
17,"O=C(c1cccc(-c2nc3ccccc3[nH]2)n1)N1CCN(C(=O)c2cccc(-c3nc4ccccc4[nH]3)n2)CC1 [Omilancor, reference compound]",> 100
18,C=C(CC[C@@H](C(=O)O)[C@H]1[C@H](O)C[C@@]2(C)C3=C(CC[C@]12C)[C@@]1(C)CC[C@H](OC(C)=O)C(C)(C)[C@@H]1CC3)C(C)C [Pachymic acid],> 100
19,C[C@@H]1CC[C@]2(C(=O)O)CC[C@]3(C)C(=CC[C@@H]4[C@@]5(C)CC[C@H](O)C(C)(C)[C@@H]5CC[C@]43C)[C@@H]2[C@]1(C)O [Pomolic acid],> 100

# Same assay, conditions: primer-extension PAGE assay, 150 nM RTC, 5% DMSO, 30 min preincubation at 37 °C; mean and SD of at least 3 independent experiments
row,SMILES,IC50 [µM]
1,"CC[C@H](CC[C@@H](C)[C@H]1CC[C@H]2[C@@H]3CC=C4C[C@@H](O[C@@H]5O[C@H](CO)[C@@H](O)[C@H](O)[C@H]5O)CC[C@]4(C)[C@H]3CC[C@]12C)C(C)C [Daucosterol, reference compound]",> 100
2,C[C@@H]1CC[C@@]2(OC1)O[C@H]1C[C@H]3[C@@H]4CC=C5C[C@@H](O[C@@H]6O[C@H](CO)[C@@H](O)[C@H](O)[C@H]6O)CC[C@]5(C)[C@H]4CC[C@]3(C)[C@H]1[C@@H]2C [Disogluside],> 100
3,"C[C@H](NC(=O)c1c(N)nn2cccnc12)c1cc2cccc(C#Cc3cnn(C)c3)c2c(=O)n1-c1ccccc1 [Eganelisib, reference compound]",> 100
4,"C[C@H]1CN(C2COC2)CCN1c1ccc(Nc2cc(-c3ccnc(N4CCn5c(cc6c5CC(C)(C)C6)C4=O)c3CO)cn(C)c2=O)nc1 [Fenebrutinib, reference compound]",> 100
5,"CN1C(=O)c2c(nn(Cc3ccc(-c4cccc(F)n4)cc3)c2Nc2ccccc2)N2C1=N[C@@H]1CCC[C@@H]12 [Lenrispodun, reference compound]",24.2 ± 8.68
6,"CS(=O)(=O)c1cccc(C[C@H](NC(=O)c2c(Cl)cc3c(c2Cl)CCN(C(=O)c2ccc4ccoc4c2)C3)C(=O)O)c1 [Lifitegrast, reference compound]",> 100
7,"Cc1ccc(F)cc1C(=O)Nc1ccc(C(=O)N2Cc3cccn3Cc3ccccc32)c(Cl)c1 [Lixivaptan, reference compound]",> 100
8,"COc1cccc(OC)c1-c1cc(C(=O)NC2(C(=O)O)C3CC4CC(C3)CC2C4)nn1-c1ccnc2cc(Cl)ccc12 (stereo not shown) [Meclinertant, reference compound]",15.4 ± 2.77
9,"Cc1ccc(C(=O)Nc2ccc(Oc3cc4cnn(C)c4cc3-c3cn[nH]c3)c(F)c2)c(=O)n1-c1ccc(F)cc1 [Merestinib, reference compound]",> 100
10,"CC1(C)CC[C@]2(NC(=O)C(C)(F)F)CC[C@]3(C)[C@H](C(=O)C=C4[C@@]5(C)C=C(C#N)C(=O)C(C)(C)[C@@H]5CC[C@]43C)[C@@H]2C1 [Omaveloxolone, reference compound]",13 ± 4.28
11,"Cc1cnc(C(=O)N[C@H]2CCCCC/C=C\[C@@H]3C[C@@]3(C(=O)NS(=O)(=O)C3CC3)NC(=O)[C@@H]3C[C@@H](Oc4nc5ccccc5c5ccccc45)CN3C2=O)cn1 [Paritaprevir, reference compound]",42.2 ± 9.97

# Same assay, conditions: read-out: IC50: compound concentration required to inhibit by 50% the SARS-CoV-2 RTC enzymatic activity
row,SMILES,IC50 [µM]
1,CC(C)(O)[C@@H]1CC[C@](C)([C@H]2[C@@H](O)C[C@@]3(C)[C@@H]4C[C@H](O)[C@H]5C(C)(C)[C@@H](O)CC[C@@]56C[C@@]46CC[C@]23C)O1 [Cycloastragenol],> 100
2,"CC(C)(O)CC[C@H]1OC(C)(C)O[C@]1(C)[C@H]1CC[C@@]2(O)C3=CC(=O)[C@@H]4C[C@H]5OC(C)(C)O[C@H]5C[C@]4(C)[C@H]3CC[C@]12C [Ecdysterone 2,3:20,22-diacetonide]",> 100
3,"CC(C)C1=C2[C@H]3CC[C@@H]4[C@@]5(C)CC[C@H](OC(=O)CC(C)(C)C(=O)O)C(C)(C)[C@@H]5CC[C@@]4(C)[C@]3(C)CC[C@@]2([C@@H](O)CN(CCN(C)C)Cc2ccc(Cl)cc2)CC1=O [Gsk-2838232, reference compound]",> 100
4,"Cc1ccccc1NC(=O)Nc1ccc(CN2C(=O)N([C@@H](CC(C)C)C(=O)N[C@@H](CC(=O)O)c3ccccc3)C(=O)C2(C)C)cc1 [HMR1031, reference compound]",91.2 ± 4.88
5,C[C@H]1CC[C@@H]2N(C1)C[C@H]1[C@@H]3C[C@H]4[C@@H](CC(=O)[C@H]5C[C@@H](O[C@@H]6O[C@H](CO)[C@@H](O)[C@H](O)[C@H]6O)CC[C@@]54C)[C@@H]3CC[C@H]1[C@]2(C)O [Imperialine 3-beta-D-glucoside],> 100
6,CC(C)=CCc1c(-c2ccc(O)cc2O)oc2c([C@H]3C=C(C)C[C@@H](c4ccc(O)cc4O)[C@@H]3C(=O)c3ccc(O)cc3O)c(O)cc(O)c2c1=O [Kuwanon G],41 ± 6.18
7,CC(C)=CCc1c(O)ccc(C(=O)[C@@H]2[C@@H](c3c(O)cc(O)c4c(=O)c(CC=C(C)C)c(-c5ccc(O)cc5O)oc34)C=C(C)C[C@H]2c2ccc(O)cc2O)c1O [Kuwanon H],66.2 ± 1.81
8,C=C(C)[C@@H]1CC[C@]2(C)CC[C@]3(C)[C@H](CC[C@@H]4[C@@]5(C)CC[C@H](OC(C)=O)C(C)(C)[C@@H]5CC[C@]43C)[C@@H]12 [Lupeol Acetate],> 100
9,C[C@H](CC[C@@H](O[C@@H]1O[C@H](CO)[C@@H](O)[C@H](O)[C@H]1O)C(C)(C)O)[C@H]1CC[C@@]2(C)[C@@H]3CC=C4[C@@H](CC[C@H](O[C@@H]5O[C@H](CO)[C@@H](O)[C@H](O)[C@H]5O)C4(C)C)[C@]3(C)[C@H](O)C[C@]12C [Mogroside IIe],> 100
10,"CC#C/C(=N/OC[C@H]1COCCN1)c1ccc2ncnc(Nc3ccc(OCc4cccc(F)c4)c(Cl)c3)c2c1 [N-[3-chloro-4-[(3-fluorophenyl)methoxy]phenyl]-6-[(E)-N-[[(3R)-morpholin-3-yl]methoxy]-C-prop-1-ynylcarbonimidoyl]quinazolin-4-amine, reference compound]",> 100
11,O=C(NCC(O)CNC(=O)/C(=C\c1ccco1)NC(=O)c1ccccc1)/C(=C\c1ccco1)NC(=O)c1ccccc1 [N-[(E)-3-[[3-[[(E)-2-benzamido-3-(furan-2-yl)prop-2-enoyl]amino]-2-hydroxypropyl]amino]-1-(furan-2-yl)-3-oxoprop-1-en-2-yl]benzamide],90.1 ± 14
12,CC1(C)CC[C@]2(C(=O)O)CC[C@]3(C)C(=CC[C@@H]4[C@@]5(C)CC[C@H](O[C@@H]6O[C@H](C(=O)O)[C@@H](O[C@@H]7O[C@@H](CO)[C@H](O)[C@H]7O)[C@H](O)[C@H]6O)C(C)(C)[C@@H]5CC[C@]43C)[C@@H]2C1 [Narcissiflorine],17.2 ± 5.96
13,CC1=C2C[C@H]3[C@@H](CC(=O)[C@H]4C[C@@H](O)CC[C@@]43C)[C@@H]2CC[C@]12O[C@@H]1C[C@H](C)CN[C@H]1[C@H]2C [Peimisine],> 100

# Source: article PMC12519464, “Dual-Site Inhibition of SARS-CoV‑2 RNA-Dependent RNA Polymerase by Small Molecules Able to Block Viral Replication Identified through a Computer-Aided Drug Discovery Approach” (ACS Infectious Diseases, 2025)
